Source: PubChem BioAssay (NCI)
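Tested at 5 concentrations; 48 h exposure; 96-well plates; endpoints linearly interpolated, else capped at highest concentration. TGI is the concentration that stops growth completely.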 *1 amine or outer side, *2 acyl side, *3 side chain or, on linkers, in order; H or OH if unused. Where a SMILES comes first, the peptide text is derived from it. [ ]: non-standard residue; d: D form. ξ: configuration not given here. Ile(3ξ) = CCC(C)[C@H](N)C(=O)O; X33 = C=CCC(O[*:1])C(=O)[*:2]; NMeV = CN[C@H](C(=O)O)C(C)C; NMeA = CN[C@@H](C)C(=O)O; βAla = NCCC(=O)O

Key:
Test in all cases: NCI anticancer screen, dose series, 48 h
786-0 renal = test system: 786-0 renal
A498 renal = test system: A498 renal
A549 NSCLC = test system: A549 NSCLC
ACHN renal = test system: ACHN renal
CAKI-1 renal = test system: CAKI-1 renal
CCRF-CEM leukemia = test system: CCRF-CEM leukemia
COLO 205 colon = test system: COLO 205 colon
DLD-1 colon = test system: DLD-1 colon
DMS 114 small cell lung = test system: DMS 114 small cell lung
DMS 273 small cell lung = test system: DMS 273 small cell lung
EKVX NSCLC = test system: EKVX NSCLC
HCC-2998 colon = test system: HCC-2998 colon
HCT-116 colon = test system: HCT-116 colon
HCT-15 colon = test system: HCT-15 colon
HL-60(TB) leukemia = test system: HL-60(TB) leukemia
HOP-62 NSCLC = test system: HOP-62 NSCLC
HOP-92 NSCLC = test system: HOP-92 NSCLC
HT29 colon = test system: HT29 colon
IGROV1 ovarian = test system: IGROV1 ovarian
K-562 leukemia = test system: K-562 leukemia
KM12 colon = test system: KM12 colon
KM20L2 colon = test system: KM20L2 colon
LOX IMVI melanoma = test system: LOX IMVI melanoma
LXFL 529 NSCLC = test system: LXFL 529 NSCLC
M14 melanoma = test system: M14 melanoma
M19-MEL melanoma = test system: M19-MEL melanoma
MALME-3M melanoma = test system: MALME-3M melanoma
MOLT-4 leukemia = test system: MOLT-4 leukemia
NCI-H226 lung = test system: NCI-H226 lung
NCI-H23 lung = test system: NCI-H23 lung
NCI-H460 lung = test system: NCI-H460 lung
OVCAR-3 ovarian = test system: OVCAR-3 ovarian
OVCAR-4 ovarian = test system: OVCAR-4 ovarian
OVCAR-5 ovarian = test system: OVCAR-5 ovarian
OVCAR-8 ovarian = test system: OVCAR-8 ovarian
RPMI-8226 leukemia = test system: RPMI-8226 leukemia
RXF 393 renal = test system: RXF 393 renal
RXF-631 renal = test system: RXF-631 renal
SF-268 CNS = test system: SF-268 CNS
SF-295 CNS = test system: SF-295 CNS
SF-539 CNS = test system: SF-539 CNS
SK-MEL-2 melanoma = test system: SK-MEL-2 melanoma
SK-MEL-28 melanoma = test system: SK-MEL-28 melanoma
SK-MEL-5 melanoma = test system: SK-MEL-5 melanoma
SK-OV-3 ovarian = test system: SK-OV-3 ovarian
SN12C renal = test system: SN12C renal
SNB-19 CNS = test system: SNB-19 CNS
SNB-75 CNS = test system: SNB-75 CNS
SNB-78 CNS = test system: SNB-78 CNS
SR leukemia = test system: SR leukemia
SW-620 colon = test system: SW-620 colon
TK-10 renal = test system: TK-10 renal
U251 CNS = test system: U251 CNS
UACC-257 melanoma = test system: UACC-257 melanoma
UACC-62 melanoma = test system: UACC-62 melanoma
UO-31 renal = test system: UO-31 renal
XF 498 CNS = test system: XF 498 CNS
HOP-18 NSCLC = test system: HOP-18 NSCLC
NCI-H522 lung = test system: NCI-H522 lung

Compound: C=CCC1OC(=O)CCNC(=O)[C@H](C)N(C)C(=O)[C@H](C(C)C)N(C)C(=O)[C@H](C(C)CC)NC(=O)[C@@H]2CCCN2C1=O (some centres undefined) (cyclo([Ile(3ξ)][NMeV][NMeA][βAla][X33]P))
- TGI (786-0 renal): > 100 µM
- TGI (A498 renal): > 100 µM
- TGI (A549 NSCLC): > 100 µM
- TGI (ACHN renal): > 100 µM
- TGI (CAKI-1 renal): > 78.6 µM
- TGI (CCRF-CEM leukemia): > 100 µM
- TGI (COLO 205 colon): > 100 µM
- TGI (DLD-1 colon): > 100 µM
- TGI (DMS 114 small cell lung): > 100 µM
- TGI (DMS 273 small cell lung): 28.9 µM
- TGI (EKVX NSCLC): > 100 µM
- TGI (HCC-2998 colon): 27.7 µM
- TGI (HCT-116 colon): > 100 µM
- TGI (HCT-15 colon): > 100 µM
- TGI (HL-60(TB) leukemia): > 100 µM
- TGI (HOP-62 NSCLC): > 21 µM
- TGI (HOP-92 NSCLC): > 30.9 µM
- TGI (HT29 colon): > 100 µM
- TGI (IGROV1 ovarian): > 100 µM
- TGI (K-562 leukemia): > 71.6 µM
- TGI (KM12 colon): > 100 µM
- TGI (KM20L2 colon): > 52 µM
- TGI (LOX IMVI melanoma): > 31.7 µM
- TGI (LXFL 529 NSCLC): > 100 µM
- TGI (M14 melanoma): 7.87 µM
- TGI (M19-MEL melanoma): > 67.6 µM
- TGI (MALME-3M melanoma): 16.5 µM
- TGI (MOLT-4 leukemia): > 100 µM
- TGI (NCI-H226 lung): 29.2 µM
- TGI (NCI-H23 lung): > 100 µM
- TGI (NCI-H460 lung): > 100 µM
- TGI (OVCAR-3 ovarian): > 100 µM
- TGI (OVCAR-4 ovarian): > 100 µM
- TGI (OVCAR-5 ovarian): > 100 µM
- TGI (OVCAR-8 ovarian): > 100 µM
- TGI (RPMI-8226 leukemia): > 100 µM
- TGI (RXF 393 renal): > 100 µM
- TGI (RXF-631 renal): > 100 µM
- TGI (SF-268 CNS): 58.4 µM
- TGI (SF-295 CNS): > 100 µM
- TGI (SF-539 CNS): > 79.4 µM
- TGI (SK-MEL-2 melanoma): 12.6 µM
- TGI (SK-MEL-28 melanoma): > 100 µM
- TGI (SK-MEL-5 melanoma): 10.4 µM
- TGI (SK-OV-3 ovarian): > 100 µM
- TGI (SN12C renal): > 100 µM
- TGI (SNB-19 CNS): > 100 µM
- TGI (SNB-75 CNS): > 90.5 µM
- TGI (SNB-78 CNS): > 100 µM
- TGI (SR leukemia): > 100 µM
- TGI (SW-620 colon): > 100 µM
- TGI (TK-10 renal): > 100 µM
- TGI (U251 CNS): > 100 µM
- TGI (UACC-257 melanoma): 36.3 µM
- TGI (UACC-62 melanoma): > 46.2 µM
- TGI (UO-31 renal): 99.6 µM
- TGI (XF 498 CNS): 41.8 µM

Compound: COc1ccc(C(=C[N+](=O)[O-])c2ccc(OC)cc2)cc1
- TGI (786-0 renal): > 89 µM
- TGI (A498 renal): 41.3 µM
- TGI (A549 NSCLC): > 100 µM
- TGI (ACHN renal): > 100 µM
- TGI (CAKI-1 renal): > 100 µM
- TGI (CCRF-CEM leukemia): > 92.7 µM
- TGI (COLO 205 colon): 15.5 µM
- TGI (DLD-1 colon): > 84.3 µM
- TGI (DMS 114 small cell lung): 23.7 µM
- TGI (DMS 273 small cell lung): 22.9 µM
- TGI (EKVX NSCLC): > 100 µM
- TGI (HCC-2998 colon): 31.5 µM
- TGI (HCT-116 colon): 27.8 µM
- TGI (HCT-15 colon): > 100 µM
- TGI (HL-60(TB) leukemia): > 34.7 µM
- TGI (HOP-18 NSCLC): > 100 µM
- TGI (HOP-62 NSCLC): 50.6 µM
- TGI (HOP-92 NSCLC): > 100 µM
- TGI (HT29 colon): 20.1 µM
- TGI (IGROV1 ovarian): > 63.3 µM
- TGI (K-562 leukemia): > 100 µM
- TGI (KM12 colon): > 46.5 µM
- TGI (KM20L2 colon): 26.9 µM
- TGI (LOX IMVI melanoma): 46.4 µM
- TGI (LXFL 529 NSCLC): > 100 µM
- TGI (M14 melanoma): 41.8 µM
- TGI (MALME-3M melanoma): > 100 µM
- TGI (MOLT-4 leukemia): 29.3 µM
- TGI (NCI-H226 lung): 52.4 µM
- TGI (NCI-H23 lung): > 57.1 µM
- TGI (NCI-H460 lung): 54.7 µM
- TGI (NCI-H522 lung): 32.7 µM
- TGI (OVCAR-3 ovarian): 46.1 µM
- TGI (OVCAR-4 ovarian): > 100 µM
- TGI (OVCAR-5 ovarian): 99.5 µM
- TGI (OVCAR-8 ovarian): 37.9 µM
- TGI (RPMI-8226 leukemia): 26.3 µM
- TGI (RXF 393 renal): 49.1 µM
- TGI (RXF-631 renal): > 100 µM
- TGI (SF-268 CNS): > 100 µM
- TGI (SF-295 CNS): 25.1 µM
- TGI (SF-539 CNS): 29.3 µM
- TGI (SK-MEL-2 melanoma): 33.3 µM
- TGI (SK-MEL-28 melanoma): > 100 µM
- TGI (SK-MEL-5 melanoma): > 100 µM
- TGI (SK-OV-3 ovarian): 36.2 µM
- TGI (SN12C renal): > 100 µM
- TGI (SNB-19 CNS): > 94.4 µM
- TGI (SNB-75 CNS): 30.3 µM
- TGI (SNB-78 CNS): > 84.5 µM
- TGI (SR leukemia): 45.1 µM
- TGI (SW-620 colon): > 73.3 µM
- TGI (TK-10 renal): 99.3 µM
- TGI (U251 CNS): 17.9 µM
- TGI (UACC-257 melanoma): > 92.6 µM
- TGI (UACC-62 melanoma): > 100 µM
- TGI (UO-31 renal): 88.9 µM
